In ChEMBL document CHEMBL1201862, “PubChem BioAssay data set” (2004):
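Grown in 96-well plates, cells were treated for 48 hours with each compound at five concentrations. Insufficient inhibition: endpoint recorded as highest concentration tested. GI50 = concentration required for 50% inhibition of growth.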 Activity calls are given as the source filed them. Rule as the data show it: active = GI50 up to about 1.1 µM and inactive = higher.

Tests used:
Assay in all cases: DTP human tumour cell line panel, 48 h
MDA-MB-231 = tested on: MDA-MB-231
LOX IMVI = tested on: LOX IMVI
T47D = tested on: T47D
SW-620 = tested on: SW-620
MOLT-4 = tested on: MOLT-4
CAKI-1 = tested on: CAKI-1
Malme-3M = tested on: Malme-3M
NCI-H226 = tested on: NCI-H226
OVCAR-3 = tested on: OVCAR-3
IGROV-1 = tested on: IGROV-1
A498 = tested on: A498
K562 = tested on: K562
CCRF-CEM = tested on: CCRF-CEM
HCT-15 = tested on: HCT-15
OVCAR-5 = tested on: OVCAR-5
UACC-257 = tested on: UACC-257
HL-60 = tested on: HL-60
SNB-75 = tested on: SNB-75
UO-31 = tested on: UO-31
SR = tested on: SR

| SMILES | GI50 (MDA-MB-231) | GI50 (LOX IMVI) | GI50 (T47D) | GI50 (SW-620) | GI50 (MOLT-4) | GI50 (CAKI-1) | GI50 (Malme-3M) | GI50 (NCI-H226) | GI50 (OVCAR-3) | GI50 (IGROV-1) | GI50 (A498) | GI50 (K562) | GI50 (CCRF-CEM) | GI50 (HCT-15) [µM] | GI50 (OVCAR-5) | GI50 (UACC-257) | GI50 (HL-60) | GI50 (SNB-75) | GI50 (UO-31) | GI50 (SR) |
| --- | --- | --- | --- | --- | --- | --- | --- | --- | --- | --- | --- | --- | --- | --- | --- | --- | --- | --- | --- | --- |
| N#C[C@H](C(=O)c1ccccc1F)c1nc2ccccc2s1 | 35.8 µM (inactive) | 33 µM (inactive) | 34.8 µM (inactive) | 32.3 µM (inactive) | 26.5 µM (inactive) | 32.5 µM (inactive) | 10.4 µM (inactive) | 21.9 µM (inactive) | 18.5 µM (inactive) | 17.8 µM (inactive) | 33 µM (inactive) | 27.3 µM (inactive) | 23.4 µM (inactive) | 54.5 | 31 µM (inactive) | 66.1 µM (inactive) | 31.3 µM (inactive) | 14.8 µM (inactive) | 46.8 µM (inactive) |  |
| COc1ccc(/N=C2\C(=N/c3ccc(OC)cc3)N(c3ccc(N(C)C)cc3)C(=S)N2c2ccc(OC)cc2)cc1 | > 100 µM (inactive) | > 100 µM (inactive) | > 100 µM (inactive) | > 100 µM (inactive) | 0.0329 µM (active) |  | > 100 µM (inactive) | > 100 µM (inactive) | > 100 µM (inactive) | > 100 µM (inactive) | > 100 µM (inactive) | > 100 µM (inactive) | > 100 µM (inactive) | > 100 | > 100 µM (inactive) | > 38 µM (inactive) | > 100 µM (inactive) |  | 3.81 µM (inactive) |  |
| O=C1/C(=C/c2ccc(O)c(CN3CCCCC3)c2)CCC/C1=C\c1ccc(O)c(CN2CCCCC2)c1 | 5.69 µM (inactive) | 7.74 µM (inactive) | 17.5 µM (inactive) | 5.52 µM (inactive) | 4 µM (inactive) | 18.8 µM (inactive) | 13.6 µM (inactive) | 15.5 µM (inactive) | 5.12 µM (inactive) | 5.75 µM (inactive) | 12.8 µM (inactive) | 1.99 µM (inactive) | 3.32 µM (inactive) | 5.37 | 29.6 µM (inactive) | 10.6 µM (inactive) | 3.48 µM (inactive) | 2.27 µM (inactive) | 10.4 µM (inactive) |  |
| CC12CC3OC(=O)C1COC14OC5(C2C1=O)C(O)(CCC1C4CC(O)C2(O)CC=CC(=O)C12C)C(=O)OC35C (stereo not drawn) | > 100 µM (inactive) | > 100 µM (inactive) | > 100 µM (inactive) | > 100 µM (inactive) | > 100 µM (inactive) | > 100 µM (inactive) | > 100 µM (inactive) | > 100 µM (inactive) | > 100 µM (inactive) | > 100 µM (inactive) |  | > 100 µM (inactive) | > 100 µM (inactive) | > 100 | > 100 µM (inactive) | > 100 µM (inactive) | > 100 µM (inactive) | > 100 µM (inactive) | > 100 µM (inactive) |  |
| COc1ccc(NCc2cc(OC)c(OC)c(OC)c2)cc1 | 0.596 µM (active) | 0.417 µM (active) |  | 0.215 µM (active) | 0.493 µM (active) |  | 0.488 µM (active) |  | 0.255 µM (active) | 0.582 µM (active) | 0.521 µM (active) |  |  | 0.18 |  |  | 0.205 µM (active) |  |  | 0.228 µM (active) |
| CC[C@]12C=CCN3CC[C@@]4(c5cc(Br)c(OC)cc5N(C)[C@H]4[C@@](O)(C(=O)NN)[C@@H]1O)[C@@H]32 | 70.3 µM (inactive) | 65.6 µM (inactive) | 40.4 µM (inactive) | > 100 µM (inactive) | 26.7 µM (inactive) | > 100 µM (inactive) | 69.8 µM (inactive) | 43 µM (inactive) | 58.9 µM (inactive) | 87.1 µM (inactive) | 36.8 µM (inactive) | 48.2 µM (inactive) | 38 µM (inactive) | > 100 | > 100 µM (inactive) | 55 µM (inactive) | 37.9 µM (inactive) | 18.2 µM (inactive) | > 100 µM (inactive) |  |
| ON(CCc1ccncc1)Cc1ccccc1 |  | > 100 µM (inactive) | > 100 µM (inactive) | > 100 µM (inactive) | > 100 µM (inactive) | > 100 µM (inactive) | > 100 µM (inactive) | > 100 µM (inactive) | > 100 µM (inactive) | > 100 µM (inactive) | > 100 µM (inactive) | > 100 µM (inactive) |  | > 100 | > 100 µM (inactive) |  |  | > 100 µM (inactive) | > 100 µM (inactive) | > 100 µM (inactive) |
| O=C(O)C(Cc1ccccc1)NCc1c(O)ccc2c(-c3ccccc3)cc(=O)oc12 (stereo not drawn) | > 100 µM (inactive) | > 100 µM (inactive) | > 100 µM (inactive) | > 100 µM (inactive) | > 100 µM (inactive) | > 100 µM (inactive) | > 100 µM (inactive) | > 100 µM (inactive) | > 100 µM (inactive) | > 100 µM (inactive) |  | > 100 µM (inactive) | > 100 µM (inactive) | > 100 | > 100 µM (inactive) | > 100 µM (inactive) | > 100 µM (inactive) | > 100 µM (inactive) | > 100 µM (inactive) | > 100 µM (inactive) |
